{
  "source": "patent US10940151B2",
  "about": "“Methods for treating renal disease” (Beth Israel Deaconess Medical Center, Inc., priority 2012, dated 2021)",
  "assay_type_in_all_cases": "cell-based",
  "key": {"[1]": {"tested_on": "APOL1 expression in endothelial cells", "test": "APOL1 expression in endothelial cells treated with TLR3 agonist poly(I:C) and inhibitors", "conditions": "TLR3 agonist poly(I:C) (FIG. 8-13)", "procedure": "Endothelial cells were treated with the TLR3 agonist poly(I:C) and with JAK inhibitors (FIGS. 8A-8D), Bx795(a TBK1/IKKe inhibitor) (FIG. 9), and chloroquine (FIG. 10). […] The TBK1/IKK e complex is used by both TLR and Rig-like receptor signaling mechanisms, and therefore offers a broader target for inhibition of APOL1 expression than either pathway alone. Chloroquine and similar class of compounds may be particularly useful for inhibiting APOL1 expression when that expression is driven by endosomal pattern recognition receptors such as TLR3, TLR7, TLR8, TLR9, and in some cases TLR4. Even though TLR3 expression is described above as an example, these strategies are likely to be effective in blocking APOL1 expression driven by multiple inflammatory stimuli.\nEndothelial cells were treated with the TLR3 agonist poly(I:C) and with NF-κB inhibitors (FIG. 11), PKR inhibitors (FIG. 12), and MAP kinase inhibitors (FIG. 13)."}, "APOL1 expression": {"tested_on": "APOL1 expression", "test": "shRNA knockdown experiments on poly(I:C)-induced APOL1 upregulation", "conditions": "polyI:C versus control, GFP virus control (FIG. 14)", "from_the_text": "To validate pharmacologic targets that may regulate pathogenic APOL1 expression, we used shRNA to determine specific genes that mediate the APOL1 upregulation induced by poly(I:C). These experiments allowed us to confirm targets identified above by pharmacologic methods and to identify additional known targets in these same pathways. […] The data shown in FIG. 14 validates several pathways identified by the pharmacological experiments described above and identifies additional pathways that can be targeted to decrease pathogenic APOL1 expression."}, "[2]": {"tested_on": "APOL1 expression in podocytes", "test": "APOL1 expression in podocytes treated with TLR3 agonist poly(I:C) and inhibitors", "conditions": "podocytes (not shown)"}, "[3]": {"tested_on": "APOL1 mRNA expression in endothelial cells", "test": "APOL1 mRNA expression in endothelial cells treated with interferon beta and JAK inhibitors", "conditions": "interferon beta (FIG. 4A-4C)", "from_the_text": "JAK inhibitors are in clinical testing for autoimmune disease, transplant immunosuppression, and myelodysplastic syndromes. They are selective, rather than specific, for individual JAK inhibitors. For example, WHI-P131 targets JAK3, INCB018424 (ruxolitinib) targets […] and JAK2, and TG101348 targets JAK2."}, "[4]": {"tested_on": "APOL1 mRNA expression in endothelial cells", "test": "APOL1 mRNA expression in endothelial cells after stimulation with interferons, TLR/RIG agonists or bacterial DNA", "conditions": "interferon stimulation (FIG. 3A, 3B)", "from_the_text": "HIV is a powerful inducer of APOL1 renal disease in individuals with the renal risk genotype. Other viruses such as parvovirus have been associated with FSGS. […] Cells have extracellular, endosomal, and cytoplasmic viral sensors such as TLRs, Rig-L1, and others. These genes are potential targets for reducing APOL1 expression."}},
  "note": "Entries after “also recorded” stand apart in the source; their conditions may differ.",
  "data": [
    {"molecule": "Nc1ccc2ncnc(NCCc3ccc(Oc4ccccc4)cc3)c2c1", "note": "[6A4Q, 6-amino-4-(4-phenoxyphenylethylamino) quinazoline]", "values": [
      {"measurement": "effect on poly(I:C) induced APOL1 upregulation (in words)", "setting": "[1]", "result": "could be inhibited"}
    ]},
    {"molecule": "polyI:C", "values": [
      {"measurement": "stimulation of APOL1 expression (in words)", "setting": "APOL1 expression", "result": "strongly stimulates APOL1 expression"}
    ]},
    {"molecule": "Oc1c2ccccc2c2c3c(cccc13)N=N2", "note": "[SP600125]", "values": [
      {"measurement": "inhibition of APOL1 expression", "setting": "[2]", "result": 50, "unit": "%"}
    ]},
    {"molecule": "N#CC[C@H](C1CCCC1)n1cc(-c2ncnc3[nH]ccc23)cn1", "note": "[INCB018424]", "values": [
      {"measurement": "effect on APOL1 upregulation caused by interferon beta (in words)", "setting": "[3]", "result": "block the potentially pathologic upregulation of APOL1"}
    ]},
    {"molecule": "CC(C)(C)c1ccc(S(=O)(=O)/C=C/C#N)cc1", "note": "[Bay 11-7085]", "values": [
      {"measurement": "effect on poly(I:C) induced APOL1 upregulation (in words)", "setting": "[1]", "result": "could be inhibited"}
    ]},
    {"molecule": "O=C(NCCCNc1nc(Nc2cccc(NC(=O)N3CCCC3)c2)ncc1I)c1cccs1", "note": "[Bx795]", "values": [
      {"measurement": "effect on poly(I:C) induced APOL1 upregulation (in words)", "setting": "[1]", "result": "reduced the poly(I:C) induced increased in APOL1 expression"}
    ]},
    {"molecule": "interferon gamma: type 2 (gamma) interferon", "values": [
      {"measurement": "upregulation of APOL1", "setting": "[4]", "result": "up to 200 fold"}
    ]},
    {"molecule": "COc1cc2ncnc(Nc3ccc(O)cc3)c2cc1OC", "note": "[WHI-P131]", "values": [
      {"measurement": "effect on APOL1 upregulation caused by interferon beta (in words)", "setting": "[3]", "result": "block the potentially pathologic upregulation of APOL1"}
    ]},
    {"molecule": "C[S+]([O-])c1ccc(-c2nc(-c3ccncc3)c(-c3ccc(F)cc3)[nH]2)cc1", "note": "(stereo not shown) [SB203580]", "values": [
      {"measurement": "effect on poly(I:C) induced APOL1 upregulation (in words)", "setting": "[1]", "result": "inhibited blocked poly(I:C) induced APOL1 upregulation; also recorded: inhibited APOL1 expression"}
    ]},
    {"molecule": "Cc1cnc(Nc2ccc(OCCN3CCCC3)cc2)nc1Nc1cccc(S(=O)(=O)NC(C)(C)C)c1", "note": "[TG101348]", "values": [
      {"measurement": "effect on APOL1 upregulation caused by interferon beta (in words)", "setting": "[3]", "result": "block the potentially pathologic upregulation of APOL1"}
    ]},
    {"molecule": "O=C1Nc2ccc3ncsc3c2/C1=C/c1c[nH]cn1", "note": "[imidazolo-oxindole PKR inhibitor]", "values": [
      {"measurement": "effect on poly(I:C) induced APOL1 upregulation (in words)", "setting": "[1]", "result": "blocks APOL1 upregulation"},
      {"measurement": "effect on poly(I:C) induced APOL1 upregulation (in words)", "setting": "[1]; listed as drawing 4", "result": "completely blocked poly(I:C) induced APOL1 upregulation"}
    ]},
    {"molecule": "CCN(CC)CCCC(C)Nc1ccnc2cc(Cl)ccc12", "note": "(stereo not shown) [chloroquine]", "values": [
      {"measurement": "effect on poly(I:C) induced APOL1 upregulation (in words)", "setting": "[1]", "result": "reduced the poly(I:C) induced increased in APOL1 expression"}
    ]}
  ]
}
